Data from PubChem BioAssay (NCI).
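Each compound was tested at five concentrations against cells in 96-well plates for 48 hours. GI50 = concentration required for 50% inhibition of growth. TGI marks complete inhibition of growth.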

Experiments:
Assay in all cases: NCI tumour cell line growth inhibition, 48 h
SF-268 CNS = system: SF-268 CNS
OVCAR-8 ovarian = system: OVCAR-8 ovarian
SK-MEL-28 melanoma = system: SK-MEL-28 melanoma
SR leukemia = system: SR leukemia
TK-10 renal = system: TK-10 renal
HL-60(TB) leukemia = system: HL-60(TB) leukemia
HCT-116 colon = system: HCT-116 colon
OVCAR-4 ovarian = system: OVCAR-4 ovarian
BT-549 breast = system: BT-549 breast
KM12 colon = system: KM12 colon

SMILES	GI50 (SF-268 CNS)	TGI (SF-268 CNS)	GI50 (OVCAR-8 ovarian)	TGI (OVCAR-8 ovarian)	GI50 (SK-MEL-28 melanoma)	TGI (SK-MEL-28 melanoma)	GI50 (SR leukemia)	TGI (SR leukemia)	GI50 (TK-10 renal)	TGI (TK-10 renal)	GI50 (HL-60(TB) leukemia)	TGI (HL-60(TB) leukemia)	GI50 (HCT-116 colon)	TGI (HCT-116 colon)	GI50 (OVCAR-4 ovarian)	TGI (OVCAR-4 ovarian)	GI50 (BT-549 breast)	TGI (BT-549 breast)	GI50 (KM12 colon)	TGI (KM12 colon)
COc1ccc(-c2nc(-c3nc4ccc(C)cc4[nH]3)cc3c2[nH]c2ccccc23)cc1	6.8 µM	> 100 µM	3.02 µM	> 100 µM	5 µM	> 100 µM	2.68 µM	27.8 µM	5.45 µM	> 100 µM	4.11 µM	37.7 µM	3.55 µM	40.6 µM	4.09 µM	> 100 µM	6.88 µM	> 100 µM	3.26 µM	14 µM
Cc1ccc(-c2nc(/C=N/Nc3cc(C)nc4ccc(Cl)cc34)c(C)o2)cc1			1.65 µM	4.13 µM	1.81 µM	3.29 µM	0.339 µM	1.39 µM	1.8 µM	3.32 µM	1.12 µM	2.97 µM	1.79 µM	3.23 µM	1.8 µM	3.42 µM	1.72 µM	3.27 µM	1.88 µM	3.88 µM
COc1ccc(-c2cncn2-c2cc(OC)c(OC)c(OC)c2)cc1	2.01 µM	59.7 µM	1.07 µM	> 51.3 µM	11.3 µM	> 100 µM	2.09 µM	6.59 µM	0.139 µM	27.1 µM	1.72 µM	3.59 µM		4.78 µM	> 36.3 µM	> 100 µM	0.249 µM	52 µM	0.0224 µM	1.53 µM
O=C1CSC(c2ccccc2Cl)N1c1nnc(Cn2cnnc2)o1 (stereo not given)	13.9 µM	93.7 µM	30.2 µM	> 100 µM	12.3 µM	45.8 µM	3.51 µM	19.1 µM	22.8 µM	81.9 µM	2.69 µM	8.67 µM	4.09 µM	18.4 µM	23.9 µM	> 100 µM	6.31 µM	32.5 µM	5.2 µM	20.3 µM
COc1ccccc1S(=O)(=O)Nc1ccc2c3c(cc(CCC(=O)NCCCCNc4cccc5c4C(=O)N(C4CCC(=O)NC4=O)C5=O)cc13)C(=O)N2C (stereo not given)	0.317 µM	> 100 µM	0.346 µM	> 100 µM	1.08 µM	> 100 µM	0.248 µM	> 52.5 µM	> 29.9 µM	> 100 µM	0.0273 µM		3.06 µM	> 100 µM	0.259 µM	1.44 µM	0.0874 µM	1.56 µM	0.697 µM	> 100 µM
CCCc1cc(=O)n2c(C(=O)Nc3ccc(F)cc3)c(C(=O)Nc3ccc(F)cc3)sc2n1	18.8 µM	95.6 µM	4.57 µM	28 µM	56.5 µM	> 160 µM	31.3 µM	88.1 µM	32.3 µM	74.7 µM	> 160 µM	> 160 µM	18.3 µM	> 160 µM	26.4 µM	54.9 µM	> 160 µM	> 160 µM	111 µM	> 160 µM
CC/C(Cc1ccccc1)=C(\c1ccc(OCCN2CCCC2)cc1)c1ccc(OC(=O)NCc2ccccc2)cc1	1.81 µM	3.77 µM	1.87 µM	3.67 µM	1.72 µM	3.18 µM	1.57 µM	4.07 µM	1.76 µM	3.5 µM	1.93 µM	3.98 µM	1.64 µM	3 µM	1.86 µM	3.85 µM	1.79 µM	3.47 µM	1.92 µM	3.81 µM
NC(=O)c1ccc(Oc2nccc(-c3c(-c4ccc(F)cc4)ncn3C3CCNCC3)n2)cc1	> 25 µM	> 25 µM	> 25 µM	> 25 µM	> 25 µM	> 25 µM	> 25 µM	> 25 µM	> 25 µM	> 25 µM	> 25 µM	> 25 µM	> 25 µM	> 25 µM	> 25 µM	> 25 µM	> 25 µM	> 25 µM	> 25 µM	> 25 µM
CCCCCCSSC(=S)N(CC)CC	33.5 µM	> 100 µM	20 µM	46.6 µM	25 µM	61.4 µM	0.0589 µM	29.1 µM	25.8 µM	56.7 µM	18.1 µM	52.3 µM	14.4 µM	28.5 µM	15.1 µM	28.8 µM	17.1 µM	45.2 µM	15.2 µM	32.1 µM
COC(=O)c1c(-c2cccs2)oc(-c2cccs2)c1C(=O)OC	42 µM	> 100 µM	37.6 µM	> 100 µM	56.7 µM	> 100 µM	> 100 µM	> 100 µM	27.9 µM	82 µM	79.9 µM	> 100 µM	30.3 µM	> 100 µM	77.8 µM	> 100 µM	52 µM	> 100 µM	32.5 µM	> 100 µM
COc1ccc(/C=C/c2c(C(=O)/C=C/c3ccc(C(F)(F)F)cc3)c(C)nc3ccccc23)cc1	1.8 µM	3.67 µM	2.22 µM	> 100 µM	1.82 µM	3.47 µM	0.599 µM	> 100 µM	2.56 µM	4.38 µM	1.92 µM	5.67 µM	0.414 µM	1.97 µM	1.81 µM	3.67 µM	1.8 µM	4 µM	2.12 µM	5.09 µM
C#C[C@@]1(O)[C@@H](CO)O[C@@H](n2cc(I)c3c(N)ncnc32)[C@@H]1O	1.1 µM	49.9 µM	0.0456 µM		1.96 µM	11.4 µM	0.262 µM	> 28.5 µM	0.551 µM	5.51 µM	0.0462 µM	0.262 µM	0.0434 µM	> 100 µM	0.809 µM	> 100 µM	0.259 µM	4.01 µM	0.0962 µM	> 100 µM
O=C(/C=C/C=C/c1ccccc1)c1ccco1	18.2 µM	41.1 µM	27.1 µM	> 100 µM	17 µM	31.6 µM	1.86 µM	11.2 µM	16.9 µM	40.1 µM	10 µM	97.6 µM	12.2 µM	25.1 µM	23.1 µM	> 100 µM	17.2 µM	40.7 µM	11 µM	24.1 µM
COc1cccc2cc(N(C)c3nc(C)nc4c3CCC4)ccc12	< 0.01 µM	15.6 µM	< 0.01 µM	19.2 µM	4.7 µM	21.6 µM	< 0.01 µM	11.3 µM	9.32 µM	30.5 µM	< 0.01 µM	0.0103 µM	< 0.01 µM	10.4 µM	< 0.0104 µM	20 µM	< 0.01 µM	11 µM	< 0.01 µM	10.7 µM
CN(C)CC1CC/C(=C\c2ccc3c(c2)OCO3)C1=O (stereo not given)		26.7 µM		19.2 µM		22.9 µM		11 µM		25.1 µM		11 µM		18.6 µM		18.9 µM		24.9 µM		18.9 µM
CCN(CC)CCCC(C)Nc1cc(-c2cccc(OC(F)(F)F)c2)nc2ccc(N3CCCC3)cc12 (stereo not given)	0.196 µM	19.8 µM	0.0626 µM	34.3 µM	5.85 µM	58.4 µM	0.0365 µM	> 100 µM	8.82 µM	> 93.1 µM	0.0528 µM	2.06 µM	0.0371 µM	13.7 µM	0.483 µM	> 100 µM	0.201 µM	3.39 µM	0.0437 µM	11.4 µM
COC(=O)Nc1nc2ccccc2[nH]1		> 100 µM		> 89.1 µM		> 100 µM		> 100 µM		> 100 µM		> 31.2 µM		> 100 µM		> 100 µM		> 100 µM		> 100 µM
CC(C)OC(=S)Nc1ccc(Cl)c(/C=N/OC(C)(C)C)c1		40.4 µM		17 µM		44.8 µM		39.3 µM		17.1 µM		37.8 µM		29.9 µM		35.3 µM		34.1 µM		17.6 µM
O=C1/C(=C/c2ccc(F)cc2)CN(C(=O)CCN2CCC(=NO)CC2)C/C1=C\c1ccc(F)cc1	2.02 µM	5.46 µM	1.3 µM	5.58 µM	1.85 µM	4.1 µM	0.197 µM	> 100 µM	2.21 µM	6.1 µM	2.26 µM	7.95 µM	0.413 µM	0.861 µM	2.34 µM	5.14 µM	1.58 µM	3.21 µM	0.537 µM	1.33 µM
O=C(Nc1ccccc1I(=O)=O)C1CCCCC1	> 100 µM	> 100 µM	> 100 µM	> 100 µM	> 100 µM	> 100 µM	> 100 µM	> 100 µM	> 100 µM	> 100 µM	57.6 µM	> 100 µM			> 100 µM	> 100 µM	> 100 µM	> 100 µM	> 100 µM	> 100 µM
C#Cc1cccc(Nc2nc(Cl)nc3cc(NC(=O)CCl)ccc23)c1	0.557 µM	1.48 µM	0.754 µM	2.65 µM	2.85 µM	6.12 µM	0.542 µM	1.68 µM	1.74 µM	5.29 µM	1.42 µM	7.27 µM	0.449 µM	0.975 µM	0.847 µM	2.69 µM	0.531 µM	2.57 µM	1.13 µM	4.22 µM
Cn1cc(C2=C(c3c[nH]c4ccccc34)C(=O)NC2=O)c2ccccc21	1.1 µM	> 25 µM	1.51 µM	> 25 µM	7 µM	> 25 µM	0.233 µM		0.132 µM	> 25 µM	0.871 µM	6.35 µM	1.51 µM	> 25 µM	> 5.06 µM	> 25 µM	0.314 µM	> 7.28 µM	0.586 µM	> 25 µM
O=C(NCCCc1cn[nH]c1)c1ccc(-c2ccncc2)c(C#Cc2ccc(F)cc2)c1	58.8 µM	> 100 µM	< 0.01 µM	> 100 µM	14.4 µM	> 100 µM	2.53 µM	> 100 µM	12.8 µM	> 100 µM	1.85 µM	14.6 µM	< 0.01 µM	15.2 µM	11.6 µM	> 100 µM	0.369 µM	60.9 µM	< 0.0155 µM	> 83.2 µM
CC(C)N(Cc1ccc(CN(C(=O)CCl)C(C)C)cc1)C(=O)CCl	1.66 µM	3.49 µM	2.08 µM	6.43 µM	2.36 µM	6.52 µM	0.225 µM	0.838 µM	2.69 µM	6.64 µM	1.95 µM	4.96 µM	1.65 µM	5.62 µM	1.38 µM	3.63 µM	1.87 µM	4.16 µM	1.75 µM	3.54 µM
Cc1ccc([N+](=O)[O-])c2c(NCCNC(=O)c3cc(C(=O)NCCNc4ccnc5c(C)ccc([N+](=O)[O-])c45)n(C)n3)ccnc12		> 100 µM		> 100 µM		> 78 µM		> 82 µM		> 100 µM		> 76.1 µM		> 100 µM		> 73.3 µM		> 100 µM		> 100 µM
O=C(O)/C(Cc1ccnc2ccccc12)=N\O		> 100 µM		> 100 µM		> 100 µM		> 100 µM		> 100 µM		> 100 µM		> 100 µM		> 100 µM		> 100 µM		> 100 µM
CN=C1C=CC(=C(c2ccc(N(C)C)cc2)c2ccc(N(C)C)cc2)C=C1	0.25 µM	1.54 µM			0.482 µM	2.07 µM	0.206 µM	0.551 µM	0.218 µM	1.14 µM	0.217 µM	0.519 µM	0.116 µM	1.09 µM	0.378 µM	2.7 µM	0.265 µM	1.28 µM	0.165 µM	0.673 µM
